Assay [1] deals with H441GL cells. Kind of assay: Study 2: tumor size in mouse lung cancer model. It is filed as in vivo, NOD/SCID mice. The settings on record: Study 2, 0.0127 mmol/kg daily, i.p.; for Tumor Size [Fold Change from Week 3 (Mean ± SD, n = 4)] Week 3: Week 3 (baseline, start of treatment). As to the method: (§1) H441GL cells (1×10^6 cells in 100 μL phosphate-buffered saline/injection) were subcutaneously injected into the right flank of NOD/SCID mice (female, 4-6 weeks old). Mice were allowed 2 weeks for tumor growth. On the first day of Week 3 post injection, tumor-bearing mice were randomly divided into control group (DMSO vehicle, intraperitoneal (i.p.) injection) and test compound treatment groups (5 mg/kg/day, 5 days/week, i.p. injection). Over the period of 10 weeks, tumorigenesis in both groups was measured using a caliper on a weekly basis. The change in tumor size was expressed as in fold change from Week 3. In this study body weight of each mouse was also recorded at the end of each study week.
In this study, the daily dose was 0.0127 mmol/kg instead of 5 mg/kg.

For assay [2], the system named is MCF7. Kind of assay: Cytotoxicity, sulforhodamine B (SRB) assay, MCF7. As to conditions: MCF7, Breast, 48 h. It is filed as cell-based, human. An excerpt: (§2) Human non-small cell lung cancer (NSCLC) cell lines (e.g., A549, H441GL and H1299), colon cancer cell lines (e.g., HCT116 and DLD1), breast cancer cell lines (e.g., MCF7 and MDA-MB-231), and pancreatic cancer cell lines (e.g., PANC-1 and SUIT-2) were used in cytotoxicity studies. These NSCLC cell lines have intrinsic resistance to epidermal growth factor receptor (EGFR) inhibitors, e.g., gefitinib. A549 and H441GL are EGFR-wild type adenocarcinoma cell lines. H1299 is an EGFR-wild type large cell carcinoma cell line. HCT116 and DLD1 are metastatic colon cell lines. MCF7 is a hormone-responsive breast cancer cell line. MDA-MB-231 is a triple-negative breast cancer cell line. PANC-1 is a metastatic adenocarcinoma cell line. SUIT-2 is a pancreatic ductal adenocarcinoma cell line.
(§3) All cell lines were grown and maintained in RPMI medium supplemented with 10% fetal bovine serum (FBS, Invitrogen), 2 mM L-glutamine, 100 U/mL penicillin, and 100 μg/mL streptomycin. For cell the culture experiment, stock solution (10 mM) of each test compound was dissolved in dimethyl sulfoxide (DMSO; Sigma).
(§4) Cells were plated in 96-well plates at a density of 2000 cells per well in triplicate. The cells in each well were treated on the third day (to ensure proper plating efficiency and vitality) with different concentrations (0-50 μM) of each test compound for 48 h.
(§5) Cell viability was assessed using the sulforhodamine B (SRB) assay. The medium was discarded, and the adherent cells were fixed by 100 μL of cold 10% trichloroacetic acid (w/v) in each well for 1 h at 4° C. After fixation, cells were stained with 100 μL/well of 0.4% (w/v, in 1% acetic acid) SRB solution for 30 min at room temperature, and then washed 5 times with 1% acetic acid. After air-drying, 100 μL of 10 mM Tris base was added to each well and the absorbance was read at 530 nm. Cytotoxicity is expressed as the percent of cells in drug treated wells relative to number of cells in the solvent only control (set to 100%). Each experiment was performed independently in triplicate and cytotoxicity IC50 value of each test compound was calculated from cytotoxicity data obtained at various concentrations.

The subject of assay [3] is MDA-MB-231. The experiment in a line: Cytotoxicity, sulforhodamine B (SRB) assay, MDA-MB-231. It is filed as cell-based, human. As to conditions: MDA-MB-231, Breast, 48 h.
Text: as §2, §3, §4, §5

For assay [4], the system named is A549. The experiment in a line: Cytotoxicity, sulforhodamine B (SRB) assay, A549. It is filed as cell-based, Human. As to conditions: A549, 48 h, NA indicates no activity.
Text: as §2, with “These NSCLC cell lines have intrinsic resistance to epidermal growth factor receptor (EGFR) inhibitors, e.g., gefitinib.” left out
as §3, §4, §5

Assay [5] deals with H441GL. The experiment in a line: Cytotoxicity, sulforhodamine B (SRB) assay, H441GL. In kind it is cell-based, Human. As to conditions: 48 h, NA indicates no activity.
Text: as §2, with “These NSCLC cell lines have intrinsic resistance to epidermal growth factor receptor (EGFR) inhibitors, e.g., gefitinib.” left out
as §3, §4, §5

Assay [6] concerns lung cancer cells. Kind of assay: Cytotoxicity SRB assay, summary of Table 2. The settings on record: summary in words of Table 2. In kind it is cell-based, Human.
Text: as §2, §4, §5
NA indicates no activity.

Assay [7] relates to PANC-1. Kind of assay: Cytotoxicity, sulforhodamine B (SRB) assay, PANC-1. In kind it is cell-based, human. The settings on record: PANC-1, Pancreas, 48 h, NA = no activity.
Text: as §2, §3, §4, §5

For assay [8], the system named is SUIT-2. The experiment in a line: Cytotoxicity, sulforhodamine B (SRB) assay, SUIT-2. It is filed as cell-based, human. The settings on record: SUIT-2, Pancreas, 48 h.
Text: as §2, §3, §4, §5

Assay [9] relates to H441GL cells. Kind of assay: Study 1: tumor size in mouse lung cancer model. In kind it is in vivo, NOD/SCID mice. The settings on record: Study 1, 5 mg/kg/day, 5 days/week, i.p.; for Tumor Size [Fold Change from Week 3 (Mean ± SD, n = 4)] Week 3: Week 3 (baseline, start of treatment). As to the method:
as §1

The record followed here is patent publication US9850219B1, “Phenothiazine derivatives and methods of use thereof” (Acenda Pharma, Inc., priority 2016, dated 2017).

In the case of `COCCOCCOCCOCCOCCOCCOCCOCCOCCOCCOCCOCCN1CCN(CCCN2c3ccccc3Sc3ccc(Cl)cc32)CC1` [Compound 4-3a], in assay [1], the “Tumor Size [Fold Change from Week 3 (Mean ± SD, n = 4)] Week 3” value came to 1 ± 0 Fold Change. Besides, the “Tumor Size [Fold Change from Week 3 (Mean ± SD, n = 4)] Week 9” value in assay [1] came out at 12.5 ± 1.5 Fold Change. Besides, the “Tumor Size [Fold Change from Week 3 (Mean ± SD, n = 4)] Week 13” value in assay [1] came to 32.6 ± 4.3 Fold Change. Also, the IC50 in assay [2] was 10 µM; in [3] it was 15.6 µM; in assay [4], 11.9 µM; in assay [5], 12.7 µM; in assay [7] it was 7.1 µM; in [8], 25.4 µM. Moreover, the “inhibition of cell proliferation of lung cancer cells” value (“inhibition” below) in assay [6] is listed as “inhibit cell proliferation”.
`COCCOCCOCCOCCOCCOCCOCC(=O)N1CCN(CCCN2c3ccccc3Sc3ccc(C(F)(F)F)cc32)CC1` [Compound 6-2b, NDT-CO—[CH2CH2O]6—CH3]: the IC50 in [4] and in [5] was 15.5 µM each time. In [6], the “inhibition” value is recorded as “inhibit cell proliferation”.
The molecule `COCCOCCOCCOCCOCCOCCOCCOCCOCCOCCOCCOCCOCCOCCOCCOCCN1CCN(CCCN2c3ccccc3Sc3ccc(C(F)(F)F)cc32)CC1` [Compound 4-4b] came in with an IC50 in assay [5] of 36.4 µM.
In assay [4], `COCCOCCOCCOCCOCCOCCOCCOCCOCCOCCOCCOCCOCC(=O)N1CCN(CCCN2c3ccccc3Sc3ccc(C(F)(F)F)cc32)CC1` [Compound 6-3b, NDT-CO—[CH2CH2O]12—CH3] displayed an IC50 of 20.6 µM.
For the molecule `COCCOCCOCCOCCOCCOCCOCCOCCOCCOCCOCCOCCOCCOCCOCCOCCOC(=O)N1CCN(CCCN2c3ccccc3Sc3ccc(Cl)cc32)CC1` [Compound 5-4a, NDP-CO—O—[CH2CH2O]16—CH3], the IC50 in [4] was found to be 6.2 µM; in [5] it was 3 µM. The “inhibition” value in [6] was “inhibit cell proliferation”.
With `COCCOCCOCCOCC(=O)N1CCN(CCCN2c3ccccc3Sc3ccc(Cl)cc32)CC1` [Compound 6-1a, NDP-CO—[CH2CH2O]3—CH3], the figures for the IC50 in [4] (Homo sapiens) and in assay [5] (Homo sapiens) were 25.8 µM and 21.5 µM, respectively. Moreover, the “inhibition” value in assay [6] is “inhibit cell proliferation”.
For `COCCOCCOCCOCCOCCOCCOC(=O)N1CCN(CCCN2c3ccccc3Sc3ccc(Cl)cc32)CC1` [Compound 5-2a, NDP-CO—O—[CH2CH2]6—CH3], the IC50 in [2] turned out to be 15.3 µM; in assay [3], 21.6 µM; in assay [4], 25.2 µM; in assay [5] it was 18.7 µM; in assay [7], 6.9 µM; in assay [8], 16.2 µM. Moreover, the “inhibition” value in assay [6] is listed as “inhibit cell proliferation”. In assay [9], the “Tumor Size [Fold Change from Week 3 (Mean ± SD, n = 4)] Week 3” value is on record as 1 ± 0 Fold Change. Moreover, the “Tumor Size [Fold Change from Week 3 (Mean ± SD, n = 4)] Week 9” value in assay [9] turned out to be 28.0 ± 6.5 Fold Change. For the same molecule, the “Tumor Size [Fold Change from Week 3 (Mean ± SD, n = 4)] Week 13” value in assay [9] is recorded as 66.2 ± 18.4 Fold Change.
As to `COCCOCCOCCOC(=O)N1CCN(CCCN2c3ccccc3Sc3ccc(Cl)cc32)CC1` [Compound 5-1a, NDP-CO—O—[CH2CH2O]3—CH3], the IC50 in [2] was 15.5 µM; in assay [3], 22.2 µM; in [4] it was 15.7 µM; in [5] it was 16 µM; in [7], 6.7 µM; in [8], 18.6 µM. For the same molecule, the “inhibition” value in assay [6] was “inhibit cell proliferation”. Moreover, the “Tumor Size [Fold Change from Week 3 (Mean ± SD, n = 4)] Week 3” value in assay [9] came out at 1 ± 0 Fold Change. The “Tumor Size [Fold Change from Week 3 (Mean ± SD, n = 4)] Week 9” value in assay [9] turned out to be 24.9 ± 4.3 Fold Change. For the same molecule, the “Tumor Size [Fold Change from Week 3 (Mean ± SD, n = 4)] Week 13” value in [9] is listed as 55.4 ± 10.8 Fold Change.
The molecule `COCCOCCOCCOCCOCCOCCOCCOCCOCCOCCOCCOCCOCCOCCOCCOCCOCC(=O)N1CCN(CCCN2c3ccccc3Sc3ccc(Cl)cc32)CC1` [Compound 6-4a, NDP-CO—[CH2CH2O]16—CH3] came in with an IC50 in assay [5] (Homo sapiens) of 39.1 µM.
In the case of `COCCOCCOCCOCCOCCOCCOCCOCCOCCOCCOCCOCCOCC(=O)N1CCN(CCCN2c3ccccc3Sc3ccc(Cl)cc32)CC1` [Compound 6-3a, NDP-CO—[CH2CH2O]12—CH3], the results for the IC50 in [4] (Homo sapiens) and in assay [5] (Homo sapiens) were 22.3 µM and 24.3 µM, respectively. Besides, the “inhibition” value in assay [6] is reported as “inhibit cell proliferation”.
`COCCOCCOCCOCCOCCOCCOCCOCCOCCOCCOCCOCCOCCOCCOCCOCCOC(=O)N1CCN(CCCN2c3ccccc3Sc3ccc(C(F)(F)F)cc32)CC1` [Compound 5-4b, NDT-CO—O—[CH2CH2O]16—CH3]: the IC50 turned out to be 13.8 µM in assay [4] and 17.5 µM in assay [5]. Moreover, the “inhibition” value in [6] is “inhibit cell proliferation”.
Turning to `COCCOCCOCCOCC(=O)N1CCN(CCCN2c3ccccc3Sc3ccc(C(F)(F)F)cc32)CC1` [Compound 6-1b, NDT-CO—[CH2CH2O]3—CH3], the half-inhibitory concentration (IC50) in assay [4] (Homo sapiens) stood at 17 µM; in [5] (Homo sapiens), 16.2 µM. In addition, the “inhibition” value in [6] is on record as “inhibit cell proliferation”.
As for `COCCOCCOCCOCCOCCOCCN1CCN(CCCN2c3ccccc3Sc3ccc(Cl)cc32)CC1` [Compound 4-2a], the “Tumor Size [Fold Change from Week 3 (Mean ± SD, n = 4)] Week 3” value in [1] is given as 1 ± 0 Fold Change. Moreover, the “Tumor Size [Fold Change from Week 3 (Mean ± SD, n = 4)] Week 9” value in assay [1] is 10.3 ± 1.6 Fold Change. Further, the “Tumor Size [Fold Change from Week 3 (Mean ± SD, n = 4)] Week 13” value in assay [1] stood at 25.6 ± 5.1 Fold Change. Also, the IC50 in [2] was determined as 13.2 µM; in [3] it was 18.1 µM; in assay [4], 10.9 µM; in assay [5], 9.1 µM; in [7] it was 13.1 µM; in assay [8], 13.5 µM. Also, the “inhibition” value in assay [6] was “inhibit cell proliferation”.
`COCCOCCOCCOCCOCCOCCOCC(=O)N1CCN(CCCN2c3ccccc3Sc3ccc(Cl)cc32)CC1` [Compound 6-2a, NDP-CO—[CH2CH2O]6—CH3]: the IC50 in [4] (Homo sapiens) turned out to be 31.5 µM; in assay [5] (Homo sapiens), 25.2 µM. The “inhibition” value in assay [6] is “inhibit cell proliferation”.
In the case of `COCCOCCOCCOCCOCCOCCOCCOCCOCCOCCOCCOCCOCCOCCOCCOCCN1CCN(CCCN2c3ccccc3Sc3ccc(Cl)cc32)CC1` [Compound 4-4a], the results for the IC50 in assay [4] and in assay [5] were 20.2 µM and 12.9 µM, respectively. In assay [6], the “inhibition” value is “inhibit cell proliferation”.
In the case of `COCCOCCOCCN1CCN(CCCN2c3ccccc3Sc3ccc(Cl)cc32)CC1` [Compound 4-1a], the IC50 in assay [2] is 12.8 µM; in assay [3], 11.9 µM; in [4], 32.5 µM; in assay [5] it was 13.2 µM; in [7] it was 12.3 µM; in [8] it was 13.2 µM. Besides, the “inhibition” value in [6] was “inhibit cell proliferation”.
As to `COCCOCCOCCOCCOCCOCCOCCOCCOCCOCCOCCOCCOCCOCCOCCOCCOCC(=O)N1CCN(CCCN2c3ccccc3Sc3ccc(C(F)(F)F)cc32)CC1` [Compound 6-4b, NDT-CO—[CH2CH2O]16—CH3], the IC50 in assay [4] (Homo sapiens) worked out at 44.2 µM; in [5] (Homo sapiens), 30 µM.
